These results are taken from BindingDB's records for doi:10.1021/acs.jmedchem.6b01270 (University of Tennessee Health Science Center, 2017).

A short description of the test: Inhibition of ATX (unknown origin) expressed in human A2058 cells assessed as inhibition of LPC-induced cell invasion after 20 hrs by calcein-AM dye based matrigel-mediated Boyden chamber assay.
In the case of `O=C(Nc1ccc(F)c(F)c1)c1cc(S(=O)(=O)N2CCOCC2)c(Cl)cc1Cl`, the half-maximal inhibitory concentration (IC50) is 528 nM. As for `O=C(Nc1cc(F)c(Cl)c(F)c1)c1cc(S(=O)(=O)N2CCOCC2)c(Cl)cc1Cl`, the IC50 was 740 nM.

As to `O=S(=O)(c1cc(C(=S)Nc2cc(F)c(F)c(F)c2)c(Cl)cc1Cl)N1CCOCC1`, the 50% inhibitory concentration (IC50) is 403 nM.

In general, IC50 refers to the point on the concentration scale where inhibition reaches its midpoint.
